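Cells were grown in 96-well plates and exposed to each compound for 48 hours at five concentrations; endpoints were interpolated linearly between bracketing concentrations, or set to the highest concentration if not reached. TGI denotes the concentration required for complete inhibition of growth.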 A value given as a limit tells only on which side of the number the result lay.

Among the test systems are DU-145 prostate; HCC-2998 colon; HCT-15 colon; HS 578T breast; K-562 leukemia; MCF7 breast; NCI-H460 lung; NCI-H522 lung; OVCAR-4 ovarian; PC-3 prostate; SF-295 CNS; SF-539 CNS; SK-MEL-28 melanoma; SNB-19 CNS; SR leukemia; SW-620 colon; UACC-257 melanoma.
What all share (assay): NCI tumour cell line growth inhibition, 48 h

Take `N#C/C(=C\N1CCNC1=S)C(=O)c1ccc2ccccc2c1`: the TGI with DU-145 prostate, in the assay on HCC-2998 colon, with HCT-15 colon, in the assay on HS 578T breast, in the assay with K-562 leukemia and in the assay with MCF7 breast was more than 100 µM each time. Also, the TGI in the assay on NCI-H460 lung, in the assay on NCI-H522 lung, in the assay on OVCAR-4 ovarian, with PC-3 prostate, in the assay on SF-295 CNS and in the assay with SF-539 CNS was more than 100 µM throughout. The TGI in the assay on SK-MEL-28 melanoma, in the assay with SNB-19 CNS, in the assay on SR leukemia, with SW-620 colon and with UACC-257 melanoma was more than 100 µM in each case.
On to `Cc1ccc(-c2n[nH]c(=O)n2N)cc1`, for which the TGI with DU-145 prostate, with HCC-2998 colon, in the assay on HCT-15 colon, in the assay on HS 578T breast, in the assay on K-562 leukemia and with MCF7 breast was more than 100 µM in each case. Further, the TGI in the assay on NCI-H460 lung, in the assay on NCI-H522 lung, in the assay with OVCAR-4 ovarian, in the assay with PC-3 prostate, in the assay on SF-295 CNS and with SF-539 CNS was more than 100 µM in each case. In addition, the TGI in the assay on SK-MEL-28 melanoma, in the assay on SNB-19 CNS, in the assay with SR leukemia, in the assay on SW-620 colon and in the assay on UACC-257 melanoma was more than 100 µM in each case.
Take `O=c1cc2oc3ccc4ccccc4c3cc-2c(=O)[nH]1`: the TGI was 27.6 µM in the assay on DU-145 prostate; 31.8 µM with HCC-2998 colon; 22.9 µM in the assay on HCT-15 colon; 58.4 µM in the assay with HS 578T breast; 82.1 µM with K-562 leukemia; 38.5 µM in the assay on MCF7 breast. Also, the TGI in the assay with NCI-H460 lung is 53.1 µM; with NCI-H522 lung, 27.9 µM; in the assay on OVCAR-4 ovarian, 48.5 µM; in the assay on PC-3 prostate, 22.4 µM; in the assay on SF-295 CNS, 37.1 µM; with SF-539 CNS, 25 µM. Further, the TGI came out at 32.7 µM in the assay on SK-MEL-28 melanoma; 27.2 µM in the assay on SNB-19 CNS; 11 µM in the assay with SR leukemia; 5.3 µM with SW-620 colon; 30.6 µM in the assay with UACC-257 melanoma.
With `O=C(/C=C/c1ccc(O)c(O)c1)Oc1ccccc1`, the TGI with DU-145 prostate is 43.8 µM; in the assay with HCC-2998 colon it was more than 58.8 µM; with HCT-15 colon, 36.2 µM; with HS 578T breast, 49 µM; with K-562 leukemia, more than 100 µM; with MCF7 breast, 64.9 µM. The TGI was 51 µM in the assay with NCI-H460 lung; 1.95 µM with NCI-H522 lung; more than 100 µM with OVCAR-4 ovarian; more than 76.9 µM in the assay on PC-3 prostate; 61.4 µM with SF-295 CNS; 88.5 µM in the assay on SF-539 CNS. In addition, the TGI is more than 100 µM in the assay on SK-MEL-28 melanoma; more than 80.9 µM in the assay on SNB-19 CNS; 24.8 µM in the assay with SR leukemia; more than 100 µM in the assay on SW-620 colon; more than 81.8 µM with UACC-257 melanoma.
For `COc1ccc(-c2c(N)n(-c3cc(OC)cc(OC)c3)c(=O)c3cc([N+](=O)[O-])ccc23)cc1`, the TGI in the assay with DU-145 prostate, in the assay with HCC-2998 colon, in the assay on HCT-15 colon, with HS 578T breast, in the assay on K-562 leukemia and in the assay with MCF7 breast was more than 100 µM throughout. Moreover, the TGI in the assay on NCI-H460 lung, in the assay on NCI-H522 lung, in the assay with OVCAR-4 ovarian, in the assay with PC-3 prostate, in the assay with SF-295 CNS and in the assay on SF-539 CNS was more than 100 µM throughout. The TGI in the assay on SK-MEL-28 melanoma was more than 100 µM; in the assay on SNB-19 CNS, 99.5 µM; in the assay on SR leukemia it was more than 100 µM; in the assay on SW-620 colon, more than 100 µM; in the assay with UACC-257 melanoma it was more than 100 µM.
Turning to `Cc1nnc2sc(-c3ccc(N)cc3)nn12`, the TGI with DU-145 prostate, in the assay on HCC-2998 colon, in the assay with HCT-15 colon, with HS 578T breast, in the assay on K-562 leukemia and in the assay with MCF7 breast was more than 100 µM each time. The TGI with NCI-H460 lung, in the assay on NCI-H522 lung, in the assay on OVCAR-4 ovarian, with PC-3 prostate, with SF-295 CNS and with SF-539 CNS was more than 100 µM in each case. The TGI with SK-MEL-28 melanoma, in the assay with SNB-19 CNS, with SR leukemia, in the assay on SW-620 colon and in the assay with UACC-257 melanoma was more than 100 µM in each case.
Regarding `COC(=O)c1c(C)cccc1C1CN=NC12Cc1c(C)cccc1C2=O` (stereo not given), the TGI in the assay with DU-145 prostate, in the assay with HCC-2998 colon, in the assay with HCT-15 colon, in the assay with HS 578T breast, with K-562 leukemia and with MCF7 breast was more than 100 µM throughout. The TGI in the assay on NCI-H460 lung is more than 100 µM; in the assay on NCI-H522 lung, 91.7 µM; in the assay with OVCAR-4 ovarian, more than 100 µM; in the assay on PC-3 prostate it was more than 100 µM; in the assay with SF-295 CNS, more than 100 µM; in the assay with SF-539 CNS it was more than 100 µM. Further, the TGI in the assay on SK-MEL-28 melanoma, in the assay with SNB-19 CNS, with SR leukemia, with SW-620 colon and in the assay on UACC-257 melanoma was more than 100 µM each time.
In the case of `Cc1nc(SCC(=O)Nc2ccccc2)c2sc(=S)n(-c3ccccc3)c2n1`, the TGI with DU-145 prostate, in the assay with HCC-2998 colon, in the assay on HCT-15 colon, in the assay on HS 578T breast, in the assay on MCF7 breast and in the assay with NCI-H460 lung was more than 10 µM in each case. Further, the TGI in the assay with NCI-H522 lung, in the assay on OVCAR-4 ovarian, in the assay with PC-3 prostate, in the assay with SF-295 CNS, with SF-539 CNS and in the assay on SK-MEL-28 melanoma was more than 10 µM throughout. Also, the TGI with SNB-19 CNS, in the assay with SR leukemia, in the assay on SW-620 colon and in the assay on UACC-257 melanoma was more than 10 µM each time.

The values above are taken from PubChem BioAssay (NCI).
